# “And” between values parts separate entries of the source, which are not always exact repeats. Identical values can stand only once.
# Tests used:
# FFA1 [1] = target: T1, FFA1 (Homo sapiens, UniProt O14842); test: Ca2+ mobilisation (Fura2) in Flp-In T-REx 293 cells expressing Nluc-FFA1, FFA1-Nluc or untagged FFA1; assay type: cell-based; design: expressed in transfected cells; conditions: for Ca2+ Response as a % of T360 Response: single technical replicates
# In short: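 520 nm emission read at 340 and 380 nm excitation over 90 s spanning compound addition. Response taken as peak 340/380 ratio after subtracting pre-addition ratios.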
# FFA1-Nluc [2] = target: T2, FFA1-Nluc (Homo sapiens, UniProt O14842); test: DISCo-BRET (endpoint, spectra scan, kinetics) with TUG-2591 and TUG-2597 at C terminal Nluc tagged FFA1; assay type: binding; design: expressed in transfected cells; conditions: for Specific BRET (540/450), % of control: Figure 4Bii, single replicate values (technical duplicate)
# In short: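 After Nano-Glo substrate (1:800 final), ligand-treated FFA1-Nluc or Nluc-FFA1 cells, doxycycline-induced (100 ng/mL), were read. Kinetic association/dissociation runs were at 25 °C; endpoint and 440–740 nm spectra came after 5 min at 37 °C. Non-specific signal came from competing ligands at high concentration.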
# FFA1 [3] = target: T1, FFA1; test: NanoBiT arrestin-3 recruitment in HEK293T cells; assay type: cell-based; design: expressed in transfected cells; host or cells: HEK293T, transient; conditions: for Arrestin recruitment (% TUG-905): technical duplicate
# Procedure: For arrestin-3 recruitment assays, HEK293T cells were transfected with FFA1 receptor and a bystander NanoBiT split luciferase arrestin-3 recruitment biosensor. Cells were transfected and plated simultaneously in a reverse transfection protocol into a poly-D-lysine coated white 96-well plate. Per well, 60,000 cells were transfected with 5 ng plasmid expressing LgBiT with a N-terminal Lyn11 plasma membrane localisation tag, 5 ng plasmid expressing bovine arrestin-3 fused at its N-terminal to SmBiT tag and 30 ng plasmid expressing the human FFA1 receptor. Total DNA was made up to 100 ng total/well with empty pcDNA3 vector and transfected to cell suspension with 0.6 µg/well PEI. Following transfection cells were cultured for 24 h before use. On the day of assay, cells were washed twice with HBSS and incubated in HBSS for 30 min at 37 °C. NanoGlo substrate was added at a final 1:800 dilution and incubated in the dark for 10 min at 37 °C. […] Raw luminescence values were divided by baseline signal (average of first 5 data points prior to compound addition) and vehicle measurements subtracted from agonist treatment. Area under curves were calculated and concentration response curves plotted.
# FFA1-Nluc [4] = target: T2, FFA1-Nluc; test: Bystander BRET internalisation assay, FFA1-Nluc in HEK293T cells; assay type: cell-based; design: expressed in transfected cells; host or cells: HEK293T (ATCC, CRL-3216), transient; conditions: in words; up to 60 min
# Procedure: Cells were transfected using a reverse transfection protocol while plating into a poly-D-lysine coated white 96-well plates. Cells were plated at 60,000 cells with 100 ng of plasmid DNA and 0.6 µg of polyethyleneimine (PEI) per well. Cells were cultured for 24 h before washing with HBSS and incubating in HBSS at 37 °C for 30 min. NanoGlo substrate was added a final 1:800 dilution and plates incubated for 10 min at 37 °C. […] After 5 min of baseline measurements, readings were paused and test compounds added to the plate.
# T2 sequence (O14842 whole entry): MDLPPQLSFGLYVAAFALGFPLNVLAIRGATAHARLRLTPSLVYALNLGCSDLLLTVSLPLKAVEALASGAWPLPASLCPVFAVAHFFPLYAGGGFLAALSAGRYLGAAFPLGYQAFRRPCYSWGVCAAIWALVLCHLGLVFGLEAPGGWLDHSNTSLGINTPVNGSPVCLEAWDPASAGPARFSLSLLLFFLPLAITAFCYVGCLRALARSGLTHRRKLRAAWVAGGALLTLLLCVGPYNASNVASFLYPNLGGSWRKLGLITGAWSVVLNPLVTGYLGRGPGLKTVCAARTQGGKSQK
# T1 sequence (O14842 whole entry): as above
compound,measurement,setting,value
COc1ccc(CCCC(C)(C)C)c(N2CCC(COc3cccc(C(CC(=O)O)C4CC4)c3)CC2)c1.O=C(O)C(F)(F)F (stereo not shown) [T360],pEC50,"FFA1 [1]; Ca2+ data, mean±SEM, NR = No response",7.48±0.31
same,Ca2+ Response as a % of T360 Response,FFA1 [1]; log[Ligand] -6,107.28% and 92.72% and 101.13% and 98.87% and 101.25% and 98.75%
same,Ca2+ Response as a % of T360 Response,FFA1 [1]; log[Ligand] -6.5,78.71% and 83.08% and 86.23% and 89.07% and 107.10% and 103.71%
same,Ca2+ Response as a % of T360 Response,FFA1 [1]; log[Ligand] -7,50.40% and 57.83% and 53.05% and 49.34% and 105.47% and 92.83%
same,Ca2+ Response as a % of T360 Response,FFA1 [1]; log[Ligand] -7.5,52.48% and 51.74% and 26.53% and 33.96% and 89.83% and 84.58%
same,Ca2+ Response as a % of T360 Response,FFA1 [1]; log[Ligand] -8,4.55% and 3.96% and 1.45% and 1.23% and 56.26% and 55.08%
same,Ca2+ Response as a % of T360 Response,FFA1 [1]; log[Ligand] -9,6.44% and -16.92% and -0.13% and -0.73% and -0.82% and -0.55%
same,Ca2+ Response as a % of T360 Response,FFA1 [1]; log[Ligand] -10,-18.12% and -11.48% and -0.62% and 0.09% and -1.11% and 0.64%
same,EMax,"FFA1 [1]; percentage of response to 10 μM T360, NR = No response",105±5%
same,pIC50 DISCo-BRET NBD/Nluc,"FFA1-Nluc [2]; 100 nM TUG-2591 and […] TUG-2597, NC = No competition",7.1±0.2
same,pIC50 DISCo-BRET SulfoCy5/NBD,"FFA1-Nluc [2]; 100 nM TUG-2591 and […] TUG-2597, one site model, NC = No competition",7.6±0.1
same,"Specific BRET (540/450), % of control",FFA1-Nluc [2]; log[Ligand] -5,1.63 % of control and 7.70 % of control and -6.77 % of control and 6.77 % of control and -12.97 % of control and -14.56 % of control and 1.39 % of control and 12.17 % of control and -49.44 % of control and -45.86 % of control and -1.49 % of control and 1.49 % of control and 11.42 % of control and 8.60 % of control
same,"Specific BRET (540/450), % of control",FFA1-Nluc [2]; log[Ligand] -5.5,30.05 % of control and 22.50 % of control and 2.63 % of control and 15.04 % of control and 41.18 % of control and 27.53 % of control and 25.39 % of control and 35.48 % of control and -24.38 % of control and -7.83 % of control and -19.08 % of control and -0.74 % of control and 16.94 % of control and 11.73 % of control
same,"Specific BRET (540/450), % of control",FFA1-Nluc [2]; log[Ligand] -6,30.79 % of control and 26.05 % of control and 32.33 % of control and 27.63 % of control and 21.16 % of control and 17.29 % of control and 31.30 % of control and 14.26 % of control and 23.94 % of control and -20.81 % of control and -12.14 % of control and 8.18 % of control and 24.56 % of control and 26.12 % of control
same,"Specific BRET (540/450), % of control",FFA1-Nluc [2]; log[Ligand] -6.5,56.11 % of control and 56.70 % of control and 19.92 % of control and 23.50 % of control and 31.40 % of control and 51.88 % of control and 45.22 % of control and 38.96 % of control and 25.28 % of control and 31.99 % of control and -27.26 % of control and -0.25 % of control and 41.03 % of control and 36.03 % of control
same,"Specific BRET (540/450), % of control",FFA1-Nluc [2]; log[Ligand] -7,69.58 % of control and 52.70 % of control and 27.26 % of control and 51.32 % of control and 37.09 % of control and 73.27 % of control and 43.13 % of control and 45.22 % of control and 35.12 % of control and 64.21 % of control and 2.48 % of control and 20.07 % of control and 56.78 % of control and 46.56 % of control
same,"Specific BRET (540/450), % of control",FFA1-Nluc [2]; log[Ligand] -8,90.01 % of control and 86.45 % of control and 67.29 % of control and 72.37 % of control and 95.79 % of control and 112.63 % of control and 106.43 % of control and 144.35 % of control and 71.81 % of control and 80.31 % of control and 48.08 % of control and 68.65 % of control and 78.15 % of control and 70.13 % of control
same,"Specific BRET (540/450), % of control",FFA1-Nluc [2]; log[Ligand] -9,104.22 % of control and 94.30 % of control and 79.70 % of control and 92.67 % of control and 141.30 % of control and 86.46 % of control and 144.00 % of control and 157.22 % of control and 122.37 % of control and 108.50 % of control and 74.10 % of control and 106.82 % of control and 97.86 % of control and 85.14 % of control
same,"'bottom' of the IC50 curve, DISCo-BRET NBD/Nluc",FFA1-Nluc [2]; percentage of binding obtained in the absence of competing ligand,2.7%
same,"'bottom' of the IC50 curve, DISCo-BRET SulfoCy5/NBD","FFA1-Nluc [2]; percentage of binding obtained in the absence of competing ligand, 100 nM TUG-2591 and […] TUG-2597",25%
same,pKi DISCo-BRET NBD/Nluc,FFA1-Nluc [2]; using Kd TUG-2597 380 nM,7.3±0.2
same,Arrestin recruitment (% TUG-905),FFA1 [3]; log[Ligand] -7,60.5575 % TUG-905 and 49.7987 % TUG-905 and 50.2806 % TUG-905 and 80.5606 % TUG-905 and 71.6469 % TUG-905 and 70.6208 % TUG-905
same,Arrestin recruitment (% TUG-905),FFA1 [3]; log[ligand] -6,47.2004 % TUG-905 and 63.2995 % TUG-905 and 73.3709 % TUG-905 and 81.6896 % TUG-905 and 75.2182 % TUG-905 and 56.718 % TUG-905
same,Arrestin recruitment (% TUG-905),FFA1 [3]; log[ligand] -6.5,57.9984 % TUG-905 and 49.7595 % TUG-905 and 71.7903 % TUG-905 and 68.6055 % TUG-905 and 72.4316 % TUG-905 and 77.5018 % TUG-905
same,Arrestin recruitment (% TUG-905),FFA1 [3]; log[ligand] -7.5,57.0191 % TUG-905 and 67.1382 % TUG-905 and 59.7164 % TUG-905 and 62.616 % TUG-905 and 83.9201 % TUG-905 and 49.002 % TUG-905
same,EMax (% TUG-905) arrestin-3 recruitment,"FFA1 [3]; percentage of the response to 10 μM TUG-905, ± SEM",66 ± 8%
same,pEC50 arrestin-3 recruitment,"FFA1 [3]; ± SEM, N=3",8.9 ± 0.4
same,internalization of FFA1-Nluc,FFA1-Nluc [4],No internalization
